Laboratory results from patent publication US6552208B1, “Fractionation process” (Karlshamns AB, priority 1998, dated 2003).

Tested on: Normal human dermal fibroblasts
Assay: UV radiation test in vitro, UV-B
Assay type: cell-based
Conditions: fibroblasts exposed to test substance 48 hours before UV irradiation; UV dose inducing 50% of cell death
Protocol: The fractionated low-erucic rapeseed oil of Example 1, the canola oil fraction, was tested in vitro for its ability to decrease the damage to cells exposed to free radicals generated by exposure to UV radiation. Normal human dermal fibroblasts were exposed to the test substance at different concentrations 48 hours before UV irradiation. DL-α-tocopheryl acetate was used as a positive control in the study. The UV dose inducing 50% of cell death was determined after the treatment by exposing the cell cultures to UV-A and UV-B radiation at different intensities.

Compound: CC(=O)Oc1c(C)c(C)c2c(c1C)CC[C@@](C)(CCC[C@H](C)CCC[C@H](C)CCCC(C)C)O2 (racemic) [DL-α-tocopheryl acetate]
- protection against UV-B radiation: neither the fractionated rapeseed oil of Example 1 or the DL-α-tocopheryl acetate gave any protection
